Data: patent US9375005B2, “5-halogenopyrazole indanyl carboxamides” (BAYER CROPSCIENCE AG, priority 2012, dated 2016)

Legend:
Puccinia recondita = test: In vivo preventive test on Puccinia recondita (brown rust on wheat); conditions: dose 500 ppm; wheat plants sprayed 24 h before contamination; grading 12 days after contamination
Description: Plants, used as controls, are treated with the mixture of acetone/tween/DMSO/water not containing the active material. After 24 hours, the plants are contaminated by spraying the leaves with an aqueous suspension of Puccinia recondita spores (100 000 spores per ml). […] Grading (% of efficacy) is carried out 12 days after the contamination, in comparison with the control plants.

[1] = Measurement of log P values by HPLC on reversed phase columns (EEC directive 79/831 Annex V.A8); format: physicochemical
Uromyces appendiculatus = test: In vivo preventive test on Uromyces appendiculatus (bean rust); conditions: dose 500 ppm; bean plants sprayed 24 h before contamination; grading 11 days after contamination
Description: Bean plants (“Saxa” variety), sown in starter cups on a 50/50 peat soil-pozzolana substrate and grown at 24° C., are treated at the 2-leaf stage (9 cm height) by spraying with the active ingredient prepared as described above. Plants, used as controls, are treated with the mixture of acetone/tween/DMSO/water not containing the active material. After 24 hours, the plants are contaminated by spraying the leaves with an aqueous suspension of Uromyces appendiculatus spores (150 000 spores per ml). […] Grading (% of efficacy) is carried out 11 days after the contamination, in comparison with the control plants.

[2] = method [a]: LC-MS at pH 2.7, 0.1% formic acid in water / acetonitrile, gradient 10% to 95% acetonitrile
[3] = method [b]: LC-MS at pH 7.8, 0.001 molar ammonium hydrogen carbonate in water, gradient 10% to 95% acetonitrile

For CON=C1c2cccc(NC(=O)c3c(C(F)F)nn(C)c3Cl)c2CC1(C)C (mixture of isomers) [Example 59], the Eff. % (Puccinia recondita) was 86%.

In the case of CC(C)C1Cc2cccc(N)c2C1C (mixture of isomers) [III-a-24], the logP [1, 2] is reported as 2.9[a].

For CCC1Cc2cccc(N)c2C1 (racemic) [III-a-16], the logP [1, 2] was 1.76[a].

For CC(C)CC1CCc2c(N)cccc21 (racemic) [III-a-22], the logP [1, 2] was 2.64[a].

In the case of CC1CC2(CC2)c2cccc(N)c21 (racemic) [III-a-25], the logP [1, 2] is reported as 1.93[a].

In the case of CCC1(C)CCc2c(N)cccc21 (racemic) [III-a-26], the logP [1, 2] is reported as 1.88[a].

In the case of CCCON=C1CC(C)c2c(N)cccc21.Cl (racemic) [III-a-29], the logP [1, 2] is reported as 2.78[a].

With CCON=C1CC(C)c2c(N)cccc21.Cl (racemic) [III-a-30] the logP [1, 2] was 2.26[a].

For CON=C1CC(C)c2c(N)cccc21.Cl (racemic) [III-a-31], the logP [1, 2] was 1.76[a].

In the case of CC(C)(C)C1CCc2c(N)cccc21 (racemic) [III-a-35], the logP [1, 2] is reported as 2.4[a].

With CCC1Cc2c(N)cccc2C1(C)C (racemic) [III-a-40] the logP [1, 2] was 2.47[a].

For CCC1(CC)Cc2c(N)cccc2C1C (racemic) [III-a-42], the logP [1, 2] was 2.63[a].

With CC1CC2(CCCC2)c2cccc(N)c21 (racemic) [III-a-43] the logP [1, 2] was 2.86[a].

In the case of CCCON=C1CCc2c(Br)cccc21 (single isomer, unassigned) [III-b-7], the logP [1, 2] is reported as 5.14[a].

In the case of CCON=C1CCc2c(Br)cccc21 (single isomer, unassigned) [III-b-10], the logP [1, 2] is reported as 4.49[a].

With CCCON=C1CCc2c(Br)cccc21 (single isomer, unassigned) [III-b-22] the logP [1, 2] was 5.56[a].

For CCON=C1CCc2c(Br)cccc21 (single isomer, unassigned) [III-b-23], the logP [1, 2] was 4.9[a].

For CC1CC2(CC2(Cl)Cl)c2cccc(NC(=O)c3c(C(F)F)nn(C)c3F)c21 (centres unmarked) [Example 1], the Eff. % (Uromyces appendiculatus) was 100% and the logP ([1]; method marked [a]) was 3.68[a].

For CC1Cc2cccc(NC(=O)c3c(C(F)F)nn(C)c3Cl)c2C1 (centres unmarked) [Example 8], the Eff. % (Puccinia recondita) was 94%, the Eff. % (Uromyces appendiculatus) was 100% and the logP ([1]; method marked [a]) was 3.67[a].

With CC1Cc2c(NC(=O)c3c(C(F)F)nn(C)c3Br)cccc2C1(C)C (centres unmarked) [Example 13] the Eff. % (Puccinia recondita) was 75%, the Eff. % (Uromyces appendiculatus) was 79% and the logP ([1]; method marked [a]) was 4.16[a].

For CC1CC(C)(C)c2c(C3CC3)ccc(NC(=O)c3c(C(F)F)nn(C)c3Cl)c21 (centres unmarked) [Example 16], the Eff. % (Puccinia recondita) was 94%, the Eff. % (Uromyces appendiculatus) was 95% and the logP ([1]; method marked [a]) was 4.57[a];. The logP ([1]; method marked [b]) was 4.57[b].

With Cc1ccc(NC(=O)c2c(C(F)F)nn(C)c2Cl)c2c1C(C)(C)CC2C (centres unmarked) [Example 18] the Eff. % (Puccinia recondita) was 78%, the Eff. % (Uromyces appendiculatus) was 76% and the logP ([1]; method marked [a]) was 4.27[a];. The logP ([1]; method marked [b]) was 4.2[b].

For CON=C1CCc2c(NC(=O)c3c(C(F)F)nn(C)c3Cl)cccc21 [Example 25], the logP ([1]; method marked [a]) was 2.82[a].

With CCON=C1CCc2c(NC(=O)c3c(C(F)F)nn(C)c3F)cccc21 [Example 27] the Eff. % (Puccinia recondita) was 72% and the logP ([1]; method marked [a]) was 3.06[a].

With CON=C1CCc2c(NC(=O)c3c(C(F)F)nn(C)c3F)cccc21 [Example 29] the Eff. % (Puccinia recondita) was 98% and the logP ([1]; method marked [a]) was 2.59[a].

For CC1CC(C)(C)c2c(Br)ccc(NC(=O)c3c(C(F)F)nn(C)c3F)c21 (centres unmarked) [Example 38], the Eff. % (Puccinia recondita) was 71%, the logP ([1]; method marked [a]) was 4.45[a]; and the logP ([1]; method marked [b]) was 4.35[b].

With CC1CC(C)c2c(NC(=O)c3c(C(F)F)nn(C)c3Cl)cccc21 (centres unmarked) [Example 43] the Eff. % (Puccinia recondita) was 98% and the Eff. % (Uromyces appendiculatus) was 100%.

With Cn1nc(C(F)F)c(C(=O)Nc2cccc3c2CC2CCCCC32)c1Cl (centres unmarked) [Example 54] the Eff. % (Puccinia recondita) was 94%, the Eff. % (Uromyces appendiculatus) was 100% and the logP ([1]; method marked [a]) was 4.54[a].

For Cn1nc(C(F)F)c(C(=O)Nc2cccc3c2C(C)(C)CC3)c1F [Example 100], the logP ([1]; method marked [a]) was 3.31[a].

In the case of CCC1(CC)CC(C)c2c(NC(=O)c3c(C(F)F)nn(C)c3Cl)cccc21 (centres unmarked) [Example 112], the logP ([1]; method marked [a]) is reported as 4.82[a].

In the case of CCC1(CC)CC(C)c2c(NC(=O)c3c(C(F)F)nn(C)c3F)cccc21 (centres unmarked) [Example 113], the logP ([1]; method marked [a]) is reported as 4.56[a].

With CCC1(CC)CC(C)c2c(NC(=O)c3c(C(F)F)nn(C)c3Br)cccc21 (centres unmarked) [Example 114] the logP ([1]; method marked [a]) was 4.82[a].

With CCC1(C)CC(C)c2c(NC(=O)c3c(C(F)F)nn(C)c3Cl)cccc21 (centres unmarked) [Example 115] the logP ([1]; method marked [a]) was 4.46[a].

In the case of CCC1(C)CC(C)c2c(NC(=O)c3c(C(F)F)nn(C)c3F)cccc21 (centres unmarked) [Example 116], the logP ([1]; method marked [a]) is reported as 4.16[a].

For CCC1(C)CC(C)c2c(NC(=O)c3c(C(F)F)nn(C)c3Br)cccc21 (centres unmarked) [Example 117], the logP ([1]; method marked [a]) was 4.44[a].

With CC(C)C1Cc2cccc(N)c2C1 (centres unmarked) [III-a-2] the logP [1, 2] was 2.25[a].

With CC(C)C1Cc2c(N)cccc2C1(C)C (centres unmarked) [III-a-3] the logP [1, 2] was 2.8[a].

With Nc1cccc2c1CCC21CC1 [III-a-4] the logP [1, 2] was 1.37[a].

In the case of CC1CC(C)(C)c2c(Cl)ccc(N)c21 (centres unmarked) [III-a-5], the logP [1, 2] is reported as 3.68[a].

With CC1Cc2c(N)cccc2C1(C)C (centres unmarked) [III-a-6] the logP [1, 2] was 1.95[a].

In the case of Nc1cccc2c1CC1(CCCC1)C2 [III-a-7], the logP [1, 2] is reported as 2.1[a].

In the case of CC1CC(C)(C)c2c(C3CC3)ccc(N)c21 (centres unmarked) [III-a-8], the logP [1, 2] is reported as 2.81[a].

With Cc1ccc(N)c2c1C(C)(C)CC2C (centres unmarked) [III-a-9] the logP [1, 2] was 2.16[a]; and the logP [1, 3] was 3.52[b].

For CC1CC(C)(C)c2c(I)ccc(N)c21 (centres unmarked) [III-a-10], the logP [1, 2] was 4.1[a].

For CC(C)C1Cc2c(N)cccc2C1C (centres unmarked) [III-a-11], the logP [1, 2] was 2.34[a].

For CCCON=C1CCc2c(N)cccc21.Cl [III-a-12], the logP [1, 2] was 2.26[a].

With CCCCON=C1CCc2c(N)cccc21.Cl [III-a-13] the logP [1, 2] was 2.86[a].

With CON=C1CCc2c(N)cccc21.Cl [III-a-14] the logP [1, 2] was 1.26[a].

In the case of CCON=C1CCc2c(N)cccc21.Cl [III-a-15], the logP [1, 2] is reported as 1.75[a].

In the case of CC1CC(C(C)C)c2cccc(N)c21 (centres unmarked) [III-a-18], the logP [1, 2] is reported as 2.73[a].

For CC1CC(C(C)C)c2cccc(N)c21 (centres unmarked) [III-a-19], the logP [1, 2] was 2.86[a].

In the case of CC1CC(C)(C)c2c(Br)ccc(N)c21 (centres unmarked) [III-a-20], the logP [1, 2] is reported as 3.85[a]; and the logP [1, 3] is reported as 3.95[b].

For Nc1cccc2c1CC(Cc1ccccc1)C2 (centres unmarked) [III-a-21], the logP [1, 2] was 2.54[a].

With CC1CC(C)c2c(N)cccc21 (centres unmarked) [III-a-23] the logP [1, 2] was 1.76[a].

With Nc1cccc2c1CC(C1CCCC1)C2 (centres unmarked) [III-a-28] the logP [1, 2] was 2.94[a].

With CON=C1c2cccc(N)c2CC1(C)C.Cl [III-a-32] the logP [1, 2] was 2.08[a].

For CC1Cc2c(N)cccc2C1C (centres unmarked) [III-a-33], the logP [1, 2] was 1.44[a].

For CC1c2c(N)cccc2C(C)(C)C1C (centres unmarked) [III-a-34], the logP [1, 2] was 2.28[a].

For CC1CC(CC(C)(C)C)c2cccc(N)c21 (centres unmarked) [III-a-36], the logP [1, 2] was 3.83[a].

With CC(C)CC1CC(C)c2c(N)cccc21 (centres unmarked) [III-a-39] the logP [1, 2] was 3.42[a].

With CC1CC2(CCCCC2)c2cccc(N)c21 (centres unmarked) [III-a-44] the logP [1, 2] was 3.35[a].

For CC(C)C1Cc2c(Br)cccc2C1(C)C (centres unmarked) [III-b-3], the logP [1, 2] was 6.7[a].

With Brc1cccc2c1CCC21CC1 [III-b-4] the logP [1, 2] was 4.86[a].

In the case of CCCCON=C1CCc2c(Br)cccc21 [III-b-8], the logP [1, 2] is reported as 5.71[a].

For CC1CC(C(C)C)c2cccc(Br)c21 (centres unmarked) [III-b-13], the logP [1, 2] was 5.31[a].

In the case of CC(C)CC1CCc2c(Br)cccc21 (centres unmarked) [III-b-16], the logP [1, 2] is reported as 6.57[a].

With CC1CC2(CC2)c2cccc(Br)c21 (centres unmarked) [III-b-20] the logP [1, 2] was 5.28[a].

In the case of CON=C1CCc2c(Br)cccc21 [III-b-24], the logP [1, 2] is reported as 4.23[a].

For CCC1Cc2c(Br)cccc2C1(C)C (centres unmarked) [III-b-29], the logP [1, 2] was 6.28[a].
